Experimental findings from patent publication US20050059615A1, “Transmucosal dosage forms for brain-targeted steroid chemical delivery systems” (priority 2003, published 2005) are described below.

The subject of one assay is ACTH. Description: Suppression of stress-induced elevation of plasma ACTH (light restraint stress). The class given is in vivo, Sprague-Dawley rats. How it is done:
(§1) Ability to suppress stress-induced ACTH and corticosterone is a measure of the anti-inflammatory action of a test substance.
(§2) Adult male Sprague-Dawley rats (Charles River Breeding Laboratories, Wilmington, Mass.) weighing 300-325 grams were selected for use in this study. The rats were housed individually in wire-bottomed cages in a climate-controlled room (23° C.) with a 12 hour light/12 hour dark cycle of artificial lighting. The animals were maintained on this light cycle for 10 days prior to the start of the experiment. Purina cat chow and tap water were provided ad libitum.
(§3) Rats then were subjected to either no stress or light restraint stress for 5 or 15 minutes on days 0, 1, 3, 5 or 7. Each experimental group consisted of six animals. For light restraint testing, the rats were placed in individual wire-mesh cages which permitted limited movement in a lateral or longitudinal direction. Nonstressed control rats were gently removed from their cages and immediately sacrificed. All animals were killed immediately at the end of the stress periods by decapitation. Trunk blood was rapidly collected in iced tubes containing EDTA, and the plasma was separated by cold centrifugation and stored at −80° C. until radioimmunoassay.
Plasma ACTH was measured in duplicate by radioimmunoassay using a double-antibody technique (Diagnostic Products Corp., Los Angeles, Calif.). The intra-assay coefficient of variation was 8.25%; and the limit of sensitivity for the assay was 17 pg/mL of plasma.
(§4) The significance of differences among mean values was determined by analysis of variance (Anova) and Student-Newman-Keuls tests. The level of probability for all tests was 0.05.

In the next assay the test system is corticosterone. Description: Suppression of stress-induced elevation of corticosterone (15-minute restraint stress). Type of assay: in vivo, Sprague-Dawley rats. The settings on record: 15-minute stress. On the procedure:
as §1, §2, §3
Plasma corticosterone was measured in duplicate by radioimmunoassay using a double-antibody technique (Cambridge Medical Tech., Inc., Billerica, Mass.). The intra-assay coefficient of variation was <2.63% and the interassay coefficient of variation was 7.1%. The limit of sensitivity for the assay was 0.39 ng/mL of plasma.
as §4

In assay [1] the test system is ovariectomized female rats. The experiment in a line: Lordosis quotient, female rat sexual behavior after ovariectomy. The class given is in vivo, Sprague Dawley rats. How it is done: Adult female Sprague Dawley rats (220-250 g) from Charles River Hungary Ltd., Godollo, Hungary, were used. Animals were kept in community cages (4 animals/cage) in a climate-controlled room (23∀2EC, 50-60% humidity), with a 14 hour light, 10 hour dark cycle of artificial lighting, using reversed light/dark cycle. Food and water were available ad libitum.
After a minimum five-day acclimatization period, animals were ovariectomized under ether anesthesia, then were left to recover for 3 weeks before testing (reconvalescence). All animals were treated in accordance with the guidelines of the European Communities Council Directive (86/609/EEC) and studies were permitted by the Institutional Animal Care Commission.
Estradiol benzoate and progesterone were obtained from Sigma Chemical Co. Inc., Budapest, Hungary. 2-Hydroxypropyl-β-cyclodextrin was purchased from Cerestar Inc., Hammond, Ind., US. […] E2-CDS as a 3% complex with HPβCD (E2-CDS-CD) was dissolved in distilled water and diluted with 27% HPβCD solution. E2-CDS-CD was synthesized by Alchem Laboratories Corporation, Alachua, Fla., US, using the procedure of Example 2 above.
(§5) After recovery from surgery, ovariectomized female rats were divided into four groups and treated once a day for five days intravenously, via a bolus injection through the tail vein, as follows: (1) control, 27% HPβCD solution; (2) 0.003 mg/kg E2-CDS dissolved in 27% HPβCD solution; (3) 0.01 mg/kg E2-CDS dissolved in 27% HPβCD solution; and (4) 0.03 mg/kg E2-CDS dissolved in 27% HPβCD solution. A minimal number of ovariectomized (8 to 12) females were used per group. Intravenous treatments either with E2-CDS or HPβCD (controls) were carried out daily for 5 days beginning 2 days prior to the first day of behavior observations, in a volume of 0.05 mL/100 g body weight.
The behavior test was conducted in a plexiglass observation cage during the dark cycle. During behavioral observations, only a dim red light was on.
(§6) An experienced and active male rat was placed in the arena 5 minutes prior to the female. […] The lordosis quotient (LQ) expresses the estrogen effect on sexual receptivity and was calculated as follows: LQ=100×number of lordoses/10 mounts The observation of the sexual behavior of each female was carried out, in the case of E2-CDS, every day for 22 days; in the case of EB, investigations were carried out every day for 10 days. […] Citrated blood samples were taken by retro-orbital sinus puncture under light ether anesthesia. The samples were stored at 4EC for one hour, then centrifuged at 1000 g for 10 minutes. Plasma was separated and stored at −80EC until assayed. Plasma LH concentrations from individual samples were measured by double antibody radioimmunoassay kits obtained from Amersham Pharmacia Biotech, Rome, Italy. […] The limit of detection was 15 pg/mL.
(§7) Behavioral changes were analyzed using the Mann-Whitney U test (Siegel, Nonparametric Statistics for the Behavioral Sciences, New York; McGraw-Hill Book Company, Inc., 1956). The Fisher exact test was used for percentage comparisons (Zar, Biostatistical Analysis, Prentice Hall, Inc., Englewood Cliffs, N.J., 1974). Serum LH data were analyzed for each time and treatment group by analysis of variance (ANOVA) followed by Bonferroni posthoc test.

The next assay has as its system LH. The experiment in a line: Plasma LH in ovariectomized female rats (radioimmunoassay). The class given is in vivo, Sprague Dawley rats. The settings on record: all dosage levels tested: 0.003, 0.01 and 0.03 mg/kg i.v. daily for 5 days. On the procedure: as §5, §6, §7
The mark [2] stands for this setting: 0.003 mg/kg i.v. once a day for 5 days.
[3] abbreviates: 0.01 mg/kg i.v. once a day for 5 days.
[4] abbreviates: 0.03 mg/kg i.v. once a day for 5 days.

For `C[C@@H]1C[C@H]2[C@@H]3CCC4=CC(=O)C=C[C@]4(C)[C@@]3(F)[C@@H](O)C[C@]2(C)[C@@]1(O)C(=O)COC(=O)C1=CN(C)C=CC1` [DEX-CDS, 9-fluoro-11β,17-dihydroxy-16α-methyl-21-{[(1-methyl-1,4-dihydropyridin-3-yl)carbonyl]oxy}pregna-1,4-diene-3,20-dione], the “effect on stress-related elevations in ACTH” value with ACTH (5-minute stress, days 1 and 3, single i.v. DEX-CDS 10 mg/kg or DEX 7.65 mg/kg (equimolar)) was “blocked”. Besides, the “day through which suppression of ACTH elevations continued” value with ACTH (5-minute stress, single i.v. DEX-CDS 10 mg/kg) stood at 5 days. In addition, the “effect on stress-related rises in ACTH” value in the assay on ACTH (15-minute stress, day 3, single i.v. DEX-CDS 10 mg/kg or DEX 7.65 mg/kg) is reported as “blocked”. Further, the “duration of suppression of elevations in ACTH” value with ACTH (15-minute stress, single i.v. DEX-CDS 10 mg/kg) is recorded as “at least 7 days”. The “suppression of corticosterone response to stress” value in the assay with corticosterone (day 3, single i.v. DEX-CDS 10 mg/kg or DEX 7.65 mg/kg) came out at 33%; in the assay with corticosterone (day 5, single i.v. DEX-CDS 10 mg/kg), 37%; in the assay on corticosterone (day 7, single i.v. DEX-CDS 10 mg/kg), 56%.
Consider `C[C@]12CC[C@@H]3c4ccc(OC(=O)c5ccccc5)cc4CC[C@H]3[C@@H]1CC[C@@H]2O` [estradiol benzoate, reference compound], for which, in assay [1] (setting [2]), the “effect on lordosis quotient” value is “slightly enhanced”, the “period of the LQ effect” value is 3 to 7 days and the “statistical significance of LQ effect” value was “not statistically significant”. In addition, in assay [1] (setting [3]), the “effect on lordosis quotient LQ” value is listed as “slightly increased”, the “period of the LQ effect” value is “day 3 to day 10” and the “statistical significance of LQ effect” value is “not statistically significant”. Moreover, in assay [1] (setting [4]), the “effect on lordosis quotient LQ” value is “significantly enhanced”, the “maximal value of lordosis quotient (LQ)” value amounted to 27.3 and the “period over which the LQ effect lasted” value is “day 3 to day 8”. Also, in the assay on LH, the “effect on plasma LH levels” value is reported as “none of the tested dosages of estradiol benzoate gave statistically significant LH suppression”.
